For 9 compounds, IC50 results are on record in patent US20260217735A1, “HETEROCYCLES AND USES THEREOF” (Kumquat Biosciences Inc., priority 2023, published 2026).

The target of one test is T1, KRAS WT (Homo sapiens, UniProt P01116).
T1 construct: made in house; host or cells: E. coli, e.g. BL21 (DE3)
The test can be described thus: HTRF assay, wildtype KRAS interaction with SOS1. It is filed as biochemical. The following applies: bins <500 nM / 500 nM to 1000 nM, read-out: Inhibition of KRAS WT (IC50). A general note: TR-FRET usually uses a lanthanide donor and a delayed reading to cut background.

The next test concerns MiaPaca2 cells. The test can be described thus: Ras cellular assay, growth of cells with K-Ras G12C mutation. It is filed as cell-based. Conditions: Homo sapiens, MIA PaCa-2; cell proliferation assay; bins ≤500 nM / >500 nM; read-out: Inhibition of MiaPaca2 Cells (IC50). In short, it runs like this:
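Anchorage-independent growth: G12C-mutant MIA PaCa-2 plated in soft agar, time-zero plate read the next day when compound was dosed (final DMSO 0.3%). After growth to day 10, MTS-type absorbance at 490/660 nm relative to time zero gave IC50 via four-parameter fitting.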

Another test addresses T2, KRAS G12V (Homo sapiens, UniProt P01116, G12V).
T2 construct: made in house; host or cells: E. coli, e.g. BL21 (DE3)
Put plainly: HTRF assay, KRAS G12V interaction with SOS1. Conditions: bins <500 nM / 500 nM to 1000 nM, read-out: Inhibition of KRAS G12V (IC50). It is filed as biochemical.

A further test concerns the target T3, KRAS G12D (Homo sapiens, UniProt P01116, G12D).
T3 construct: made in house; host or cells: E. coli, e.g. BL21 (DE3)
Put plainly: HTRF assay, KRAS G12D interaction with SOS1. The following applies: bins <500 nM / 500 nM to 1000 nM, read-out: Inhibition of KRAS G12D (IC50). It is filed as biochemical.

A further test addresses T4, KRAS G12S (Homo sapiens, UniProt P01116, G12S).
T4 construct: made in house; host or cells: E. coli, e.g. BL21 (DE3)
Put plainly: HTRF assay, KRAS G12S interaction with SOS1. It is filed as biochemical. Conditions: bins <500 nM / 500 nM to 1000 nM, read-out: Inhibition of KRAS G12S (IC50).

T3 sequence (P01116 1-188 isoform P01116-2 G12D): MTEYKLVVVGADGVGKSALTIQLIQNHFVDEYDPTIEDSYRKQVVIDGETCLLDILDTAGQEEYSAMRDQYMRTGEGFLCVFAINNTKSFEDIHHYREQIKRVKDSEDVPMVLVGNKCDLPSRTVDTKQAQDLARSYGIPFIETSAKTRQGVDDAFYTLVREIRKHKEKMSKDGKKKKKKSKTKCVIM
T4 sequence (P01116 1-188 isoform P01116-2 G12S): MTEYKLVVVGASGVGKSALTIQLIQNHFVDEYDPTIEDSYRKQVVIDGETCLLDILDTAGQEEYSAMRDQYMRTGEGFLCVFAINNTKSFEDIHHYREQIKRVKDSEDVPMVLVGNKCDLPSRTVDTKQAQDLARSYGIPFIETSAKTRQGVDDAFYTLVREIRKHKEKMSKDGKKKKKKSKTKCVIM
T2 sequence (P01116 1-188 isoform P01116-2 G12V): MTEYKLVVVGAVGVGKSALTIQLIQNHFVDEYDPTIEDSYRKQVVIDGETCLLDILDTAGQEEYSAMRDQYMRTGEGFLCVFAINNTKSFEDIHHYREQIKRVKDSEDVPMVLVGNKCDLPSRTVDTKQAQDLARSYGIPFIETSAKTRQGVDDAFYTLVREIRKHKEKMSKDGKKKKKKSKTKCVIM
T1 sequence (P01116 1-188 isoform P01116-2): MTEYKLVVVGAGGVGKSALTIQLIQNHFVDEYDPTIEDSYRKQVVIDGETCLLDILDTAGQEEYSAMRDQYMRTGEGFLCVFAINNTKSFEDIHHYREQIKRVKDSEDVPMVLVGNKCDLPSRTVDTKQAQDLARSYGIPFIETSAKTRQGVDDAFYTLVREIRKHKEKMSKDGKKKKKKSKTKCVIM

As for `CC[C@H]1N(C(=O)n2cnc(C#N)c2C)C[C@]12CCCCN(c1nc(OC[C@@]34CCCN3C[C@H](F)C4)nc3c(F)c(-c4ccc(F)c5sc(N)c(C#N)c45)c(Cl)cc13)C2` [Compound 152, 1-((1R,4R)-6-(7-(2-amino-3-cyano-7-fluorobenzo[b]thiophen-4-yl)-6-chloro-8-fluoro-2-(((2R,7aS)-2-fluorotetrahydro-1H-pyrrolizin-7a(5H)-yl)methoxy)quinazolin-4-yl)-1-ethyl-2,6-diazaspiro[3.6]decane-2-carbonyl)-5-methyl-1H-imidazole-4-carbonitrile], the IC50 at KRAS WT was under 500 nM; in the test with MiaPaca2 cells it was at most 500 nM; at KRAS G12V it was under 500 nM; on KRAS G12D it was under 500 nM; on KRAS G12S, under 500 nM.

As for `Cc1nccn1C(=O)N1CC2(CCCCN(c3nc(OC[C@@]45CCCN4C[C@H](F)C5)nc4c(F)c(-c5ccc(F)c6sc(N)c(C#N)c56)c(Cl)cc34)C2)C1` [Compound 154, 2-amino-4-(6-chloro-8-fluoro-2-(((2R,7aS)-2-fluorotetrahydro-1H-pyrrolizin-7a(5H)-yl)methoxy)-4-(2-(2-methyl-1H-imidazole-1-carbonyl)-2,6-diazaspiro[3.6]decan-6-yl)quinazolin-7-yl)-7-fluorobenzo[b]thiophene-3-carbonitrile], the IC50 was under 500 nM at KRAS WT; at most 500 nM with MiaPaca2 cells; under 500 nM on KRAS G12V; under 500 nM at KRAS G12D; under 500 nM at KRAS G12S.

`Cc1cn(C(=O)N2CC(CN(C)c3nc(OC[C@@]45CCCN4C[C@H](F)C5)nc4c(F)c(-c5ccc(F)c6sc(N)c(C#N)c56)c(Cl)cc34)(C(F)F)C2)cn1` [Compound 156, 2-amino-4-(6-chloro-4-(((3-(difluoromethyl)-1-(4-methyl-1H-imidazole-1-carbonyl)azetidin-3-yl)methyl)(methyl)amino)-8-fluoro-2-(((2R,7aS)-2-fluorotetrahydro-1H-pyrrolizin-7a(5H)-yl)methoxy)quinazolin-7-yl)-7-fluorobenzo[b]thiophene-3-carbonitrile]: the IC50 at KRAS WT was under 500 nM; in the test with MiaPaca2 cells it was at most 500 nM; at KRAS G12V, under 500 nM; on KRAS G12D, under 500 nM; on KRAS G12S, under 500 nM.

In the case of `Cc1nc(C#N)cn1C(=O)N1CC[C@@H](N(C)c2nc(OC[C@@]34CCCN3C[C@H](F)C4)nc3c(F)c(-c4ccc(F)c5sc(N)c(C#N)c45)c(Cl)cc23)[C@H]1C` [Compound 158, 1-((2R,3R)-3-((7-(2-amino-3-cyano-7-fluorobenzo[b]thiophen-4-yl)-6-chloro-8-fluoro-2-(((2R,7aS)-2-fluorotetrahydro-1H-pyrrolizin-7a(5H)-yl)methoxy)quinazolin-4-yl)(methyl)amino)-2-methylpyrrolidine-1-carbonyl)-2-methyl-1H-imidazole-4-carbonitrile], the IC50 was under 500 nM on KRAS WT; at most 500 nM in the test with MiaPaca2 cells; under 500 nM on KRAS G12V; under 500 nM at KRAS G12D; under 500 nM on KRAS G12S.

Take `CCN(c1nc(OC[C@@]23CCCN2C[C@H](F)C3)nc2c(F)c(-c3ccc(F)c4sc(N)c(C#N)c34)c(C(F)(F)F)cc12)[C@@H]1CCN(C(=O)n2cc(C#N)nc2C)[C@@H]1C` [Compound 159, 1-((2R,3R)-3-((7-(2-amino-3-cyano-7-fluorobenzo[b]thiophen-4-yl)-8-fluoro-2-(((2R,7aS)-2-fluorotetrahydro-1H-pyrrolizin-7a(5H)-yl)methoxy)-6-(trifluoromethyl)quinazolin-4-yl)(ethyl)amino)-2-methylpyrrolidine-1-carbonyl)-2-methyl-1H-imidazole-4-carbonitrile]: the IC50 is under 500 nM on KRAS WT; at most 500 nM with MiaPaca2 cells; under 500 nM at KRAS G12V; under 500 nM on KRAS G12D; under 500 nM on KRAS G12S.

`CC1C(N(C)c2nc(OC[C@@]34CCCN3C[C@H](F)C4)nc3c(F)c(-c4ccc(F)c5sc(N)c(C#N)c45)c(Cl)cc23)CCN1C(=O)n1cnc(F)n1` (stereo partly drawn) [Compound 160, 2-amino-4-(6-chloro-8-fluoro-4-((1-(3-fluoro-1H-1,2,4-triazole-1-carbonyl)-2-methylpyrrolidin-3-yl)(methyl)amino)-2-(((2R,7aS)-2-fluorotetrahydro-1H-pyrrolizin-7a(5H)-yl)methoxy)quinazolin-7-yl)-7-fluorobenzo[b]thiophene-3-carbonitrile]: the IC50 on KRAS WT was under 500 nM; in the test on MiaPaca2 cells it was at most 500 nM; on KRAS G12V, under 500 nM; at KRAS G12D, under 500 nM; at KRAS G12S, under 500 nM.

With `Cc1c(C#N)ncn1C(=O)N1C[C@]2(CCCCN(c3nc(OC[C@@]45CCCN4C[C@H](F)C5)nc4c(F)c(-c5ccc(F)c6sc(N)c(C#N)c56)c(Cl)cc34)C2)[C@H]1C` [Compound 161, 1-((1R,4R)-6-(7-(2-amino-3-cyano-7-fluorobenzo[b]thiophen-4-yl)-6-chloro-8-fluoro-2-(((2R,7aS)-2-fluorotetrahydro-1H-pyrrolizin-7a(5H)-yl)methoxy)quinazolin-4-yl)-1-methyl-2,6-diazaspiro[3.6]decane-2-carbonyl)-5-methyl-1H-imidazole-4-carbonitrile], the IC50 is under 500 nM at KRAS WT; at most 500 nM in the test on MiaPaca2 cells; under 500 nM at KRAS G12V; under 500 nM at KRAS G12D; under 500 nM on KRAS G12S.

Take `CCN(c1nc(OC[C@@]23CCCN2C[C@H](F)C3)nc2c(F)c(-c3ccc(F)c4sc(N)c(C#N)c34)c(C(F)(F)F)cc12)[C@@H]1CCN(C(=O)n2cc(C)nc2Cl)[C@@H]1C` [Compound 162, 2-amino-4-(4-(((2R,3R)-1-(2-chloro-4-methyl-1H-imidazole-1-carbonyl)-2-methylpyrrolidin-3-yl)(ethyl)amino)-8-fluoro-2-(((2R,7aS)-2-fluorotetrahydro-1H-pyrrolizin-7a(5H)-yl)methoxy)-6-(trifluoromethyl)quinazolin-7-yl)-7-fluorobenzo[b]thiophene-3-carbonitrile]: the IC50 was under 500 nM on KRAS WT; at most 500 nM in the test with MiaPaca2 cells; under 500 nM at KRAS G12V; under 500 nM on KRAS G12D; under 500 nM at KRAS G12S.

On to `CCN(c1nc(OC[C@@]23CCCN2C[C@H](F)C3)nc2c(F)c(-c3ccc(F)c4sc(N)c(C#N)c34)c(Cl)cc12)[C@@H]1CCN(C(=O)n2ccnc2C)[C@@H]1C` [Compound 163, 2-amino-4-(6-chloro-4-(ethyl((2R,3R)-2-methyl-1-(2-methyl-1H-imidazole-1-carbonyl)pyrrolidin-3-yl)amino)-8-fluoro-2-(((2R,7aS)-2-fluorotetrahydro-1H-pyrrolizin-7a(5H)-yl)methoxy)quinazolin-7-yl)-7-fluorobenzo[b]thiophene-3-carbonitrile], for which the half-inhibitory concentration (IC50) was under 500 nM at KRAS WT; at most 500 nM with MiaPaca2 cells; under 500 nM on KRAS G12V; under 500 nM on KRAS G12D; under 500 nM on KRAS G12S.

The term IC50 denotes the concentration that gives 50% inhibition.
